Test results from patent US8835392B2, “Mimetic peptides and the use thereof in the form of 20S, 26S and immunoproteasome inhibitors” (Technische Universität, priority 2005, dated 2014).
“Also recorded” adds a separate entry of the source. Where a SMILES comes first, the peptide text is derived from it. The star is where a group is joined. Cbz = O=C(OCc1ccccc1)*; OtBu = CC(C)(C)O*

Tests used:
[1] = tested on: poly-ubiquitinylated proteins in HeLa-cells; assay: Accumulation of poly-ubiquitinylated proteins, Western blot; format: cell-based; conditions: 1 μM for compound 15
Procedure: (§1) A, HeLa-cells were cultivated were 24 hours in the presence of the inhibitor. The protein concentration was determined in accordance with the cellular lysis according to Bradford in order to normalise the proteasomal activities to the different amounts of cells. Subsequently Complete (Roche) was added to all lysates, and the proteasomal activity was determined through the hydrolysis of Suc-LLVY-AMC. B, HeLa-cells was incubated with 1 μM of compound 15 for 2, 4, 6 and 24 hours. Cells were lysed, and proteins were separated through SDS-PAGE on a 10% gel, blotted to a PVDF-membrane. The accumulation of the poly-ubiquitinylated proteins was detected in a Western blot by an anti-ubiquitine-antibody (DAKO). C, HeLa-Cells were treated with increasing concentrations of the inhibitor 15, 25, 26, 27, and 28 for 24 hours (lane 1: without inhibitor; lane 2: 10 nM; lane 3: 100 nM and lane 4: 1 μM of the given inhibitor). Cells were lysed, proteins were separated on 15% gels, and the accumulation of the poly-ubiquitinylated proteins was controlled through Western blot.
A specific inhibition of the proteasome lead to an accumulation of poly-ubiquitinylated proteins. Indeed, the amount of poly-ubiquitinylated proteins increased during the incubation with the inhibitors. First effects were observed after 2 hours, for compound 15 (FIG. 6B) as well as for compounds 20, 22, 25 and 28 (data not shown).
50 μg of whole-cell-lysate were separated by SDS-PAGE, and blottet onto a PVDF-membrane (Millipore). The blots were blocked by means of a 5% milk-suspension. The poly-ubiquitinylated proteins were detected by anti-ubiquitin-antibody (DAKO), and anti-rabbit, POD-labelled, as a secondary antibody (DIANOVA), and visualized through ECL.

[2] = target: T1, proteasomal activity in HeLa-cells (Homo sapiens, UniProt P20618+P28074); assay: Intracellular inhibition of proteasomes in cultivated HeLa-cells; format: cell-based; conditions: for reduction of the proteolytic activity in cells at 10 nM: HeLa cells; for membrane-permeation / stability during the incubation periods / proteasomal activity reduced to: cultivated cells; for proteasomal activity reduced to: remaining activity
T1 construct: endogenous in cells; host or cells: HeLa
Procedure: as §1
HeLa-Cells were cultivated in RPMI, supplemented with 10% FCS and penicillin/streptomycin, at 5% CO2. Inhibitors were administered from 100×-stock solutions (in DMSO) at the final concentrations as indicated, and incubated with the cells for at least 20 hours.
Cultivated cells (HeLa) were harvested lysed and with 0.1% NP40 in TEAD in the presence of the commercially available protease-inhibitor-mixture Complete (Roche). The proteasomal activity was measured in 10 μl of the lysate using Suc-LLVY-AMC as a substrate. The protein content was quantified by means of Bradford (Protein assay; BioRad).
An application on cell cultures or animals requires that the concentrations of the inhibitors are chose as low as required. The specific proteasomal activity was reduced to a value of below 50% in cells that were treated with 1 μM of the compounds 15, 22, 25, 26, or 28, respectively (FIG. 6A).

[3] = tested on: caspase 3/7 activation in HeLa-cells; assay: Apoptosis-assay, caspase 3/7-activity (Apo-One); format: cell-based; conditions: 1 μM, 20 hours
Procedure: HeLa-cells that were cultivated for 20 hours in the presence of the given inhibitor, were subsequently incubated for 2 hours with caspase-substrate (Apo-One; Promega). The activation of caspases 3/7 was measured at 538 nm (excitation at 485 nm). Treatment of the cells with TNFα or with MG132 served as control.
For this, 10,000 HeLa-cells pro well were seeded in a 96-well-plate, and co-cultivated for 20 hours with 1 μM of the inhibitors 7, 8, 11, 13-16, 18, 20-23 and 25-28. The induction of apoptosis was determined by measuring of the caspase 3/7-activity (Apo-One®-Assay, Promega).

HeLa-cells = assay: Viability of HeLa-cells, crystal violet-staining; format: cell-based; conditions: for rate of survival of HeLa-cells: 10 μM, 20 hours
Procedure: A, The viability of HeLa-Cells that were incubated with the compounds 7-28 and MG132 (1 μM), was determined using crystal-violet-staining after 20 h.
B, The viability of HeLa-Cells is dependent from the concentration of the inhibitor. HeLa-cells were cultivated for 20 hours in the presence of increasing concentrations (10 to 10000 nM) of the compounds (7, 13, 15, 18, 20-22, 24-28) and MG 132. The survival of the cells was determined using crystal-violet-staining.
The viability of Hela-Cells in the presence of different compounds was tested in […]. The viability of HeLa-cells was tested through crystal violet-staining following the incubation with the inhibitors. The cells were washed once with PBS, fixed with 1% glutardialdehyde for 30 min, and washed again. Finally, the fixed cells were stained with 0.1% crystal violet in PBS for 30 min, and subsequently carefully washed with water, in order to remove unbound dye. The residual dye was eluted with 0.1% Triton X-100 in PBS, and determined at 550 nm.

20S proteasome = tested on: T2, 20S proteasome; assay: Inhibition of the different proteasomal activities, summary statements; format: biochemical; conditions: for which proteasomal activities are inhibited (site selectivity): isolated proteasomes, specific substrates
T2 construct: Proteasomes were isolated from red blood cells; from tissue; host or cells: red blood cells
Procedure: The specific inhibition of a single catalytic site is of specific interest for the development of drugs. Thus, the inhibition of the different proteasomal activities of the proteasome was analysed (see also example 6). The different cleavage-preferences of the proteasome were determined by the specific substrate for the hydrophobic (chymotrypsin-like), the trypsine-like and the caspase-like activities of isolated proteasomes.
Suc-LLVY-AMC, Z-VGR-AMC and LLE-AMC (BACHEM, Calbiochem) was used, in order to determine the chymotrypsin-like, trypsin-like or caspase-like (post-acidic)-activities of the proteasome. Substrate was incubated with proteasome at 37° C. in assay-buffer (20 mM Tris/Cl, pH 7.2, 1 mM EDTA, 1 mM DTT) for one hour. 100 ng proteasome was pre-incubated with 0.01-10 μM of the inhibitor for […]. The reaction was started by the addition of substrate (50 μM). The AMC as released was detected using fluorescence emission at 460 nm (excitation at 390 nm) using a TECAN-fluorimeter. The activity was calculated in fluorescence-units. The inhibition is depicted by IC50-values.
The effects thereof were compared with the one of the commonly used proteasomal inhibitor 3 (MG132). The chymotrypsin-like (Suc-LLVY-AMC), the trypsin-like (Bz-VGR-AMC), and the caspase-like (Z-LLE-AMC)-activities of 20S proteasomes were determined following incubation for one hour at 37° C.

Compound | first effects on accumulation of poly-ubiquitinylated proteins observed after [1] | reduction of the proteolytic activity in cells at 10 nM [2] | membrane-permeation [2] | stability during the incubation periods [2] | proteasomal activity reduced to [2] | induction of apoptosis (activation of caspase 3 and 7) [3] | rate of survival of HeLa-cells (HeLa-cells) | which proteasomal activities are inhibited (site selectivity) (20S proteasome) | toxicity (HeLa-cells) | IC50 (20S proteasome; proteasomal activity not given, read-out: IC50-values of the most potent inhibitors)
CC(C)C[C@H](NC(=O)OCc1ccccc1)C(=O)N[C@@H](CC(C)C)C(=O)N[C@@H](CC(C)C)C(=O)C(=O)Nc1ccccc1 [Compound 28] | 2 h | reduction of the proteolytic activity | membrane-permeation | sufficient stability | 10% | beginning apoptosis; also recorded: strong induction of apoptosis | markedly reduced | exclusive reduction of the chymotryptic activity | – | –
CC(C)CC(C=O)NC(=O)C(CC(=O)OC(C)(C)C)NC(=O)C(CC(C)C)NC(=O)OCc1ccccc1 (stereo not drawn) [Compound 15, Z-Leu-Asp(O^tBu)Leu-CHO] (Cbz-Leu-Asp(OtBu)-Leu-aldehyde; configuration not given here) | 2 h | reduction of the proteolytic activity | able to penetrate cellular membranes; also recorded: membrane-permeation | sufficient stability | 10% | beginning apoptosis; also recorded: strong induction of apoptosis | markedly reduced | inhibited all of the proteasomal hydrolytic activities | low toxicity | < 60 nM
